Assay results: patent US8765940B2 (priority 2009, dated 2014)

Biological target: PI3Kδ (Homo sapiens (Human), UniProt O00329)
Assay type: biochemical
Details: PI3Kδ Alphascreen assay
Experimental: A PI3K Alphascreen® assay (PerkinElmer, Waltham, Mass.) was used to measure the activity of a panel of four phosphoinositide 3-kinases: PI3Kα, PI3Kβ, PI3Kγ, and PI3Kδ. Enzyme reaction buffer was prepared using sterile water (Baxter, Deerfield, Ill.) and 50 mM Tris HCl pH 7, 14 mM MgCl2, 2 mM sodium cholate, and 100 mM NaCl. 2 mM DTT was added fresh the day of the experiment. The Alphascreen buffer was made using sterile water and 10 mM Tris HCl pH 7.5, 150 mM NaCl, 0.10% Tween 20, and 30 mM EDTA. 1 mM DTT was added fresh the day of the experiment. Compound source plates used for this assay were 384-well Greiner clear polypropylene plates containing test compounds at 5 mM and diluted 1:2 over 22 concentrations. Columns 23 and 24 contained only DMSO as these wells comprised the positive and negative controls, respectively. Source plates were replicated by transferring 0.5 uL per well into 384-well Optiplates (PerkinElmer, Waltham, Mass.).
Each PI3K isoform was diluted in enzyme reaction buffer to 2× working stocks. PI3Kα was diluted to 1.6 nM, PI3Kβ was diluted to 0.8 nM, PI3Kγ was diluted to 15 nM, and PI3Kδ was diluted to 1.6 nM. PI(4,5)P2 (Echelon Biosciences, Salt Lake City, Utah) was diluted to 10 μM and ATP was diluted to 20 μM. This 2× stock was used in the assays for PI3Kα and PI3Kβ. For assay of PI3Kγ and PI3Kδ, PI(4,5)P2 was diluted to 10 μM and ATP was diluted to 8 μM to prepare a similar 2× working stock. Alphascreen reaction solutions were made using beads from the anti-GST Alphascreen kit (PerkinElmer, Waltham, Mass.). Two 4× working stocks of the Alphascreen reagents were made in Alphascreen reaction buffer. In one stock, biotinylated-IP4 (Echelon Biosciences, Salt Lake City, Utah) was diluted to 40 nM and streptavadin-donor beads were diluted to 80 μg/mL. In the second stock, PIP3-binding protein (Echelon Biosciences, Salt Lake City, Utah) was diluted to 40 nM and anti-GST-acceptor beads were diluted to 80 μg/mL.
Using a 384-well Multidrop (Titertek, Huntsville, Ala.), 10 μL/well of 2× enzyme stock was added to columns 1-24 of the assay plates for each isoform. 10 μL/well of the appropriate substrate 2× stock (containing 20 μM ATP for the PI3Kα and β assays and containing 8 μM ATP for the PI3Kγ and δ assays) was then added to Columns 1-24 of all plates. Plates were then incubated at room temperature for 20 minutes. In the dark, 10 μL/well of the donor bead solution was added to columns 1-24 of the plates to quench the enzyme reaction. The plates were incubated at room temperature for 30 minutes. Still in the dark, 10 μL/well of the acceptor bead solution was added to columns 1-24 of the plates. The plates were then incubated in the dark for 1.5 hours. The plates were read on an Envision multimode Plate Reader (PerkinElmer, Waltham, Mass.) using a 680 nm excitation filter and a 520-620 nm emission filter.

PI3Kδ, sequence (O00329 whole entry): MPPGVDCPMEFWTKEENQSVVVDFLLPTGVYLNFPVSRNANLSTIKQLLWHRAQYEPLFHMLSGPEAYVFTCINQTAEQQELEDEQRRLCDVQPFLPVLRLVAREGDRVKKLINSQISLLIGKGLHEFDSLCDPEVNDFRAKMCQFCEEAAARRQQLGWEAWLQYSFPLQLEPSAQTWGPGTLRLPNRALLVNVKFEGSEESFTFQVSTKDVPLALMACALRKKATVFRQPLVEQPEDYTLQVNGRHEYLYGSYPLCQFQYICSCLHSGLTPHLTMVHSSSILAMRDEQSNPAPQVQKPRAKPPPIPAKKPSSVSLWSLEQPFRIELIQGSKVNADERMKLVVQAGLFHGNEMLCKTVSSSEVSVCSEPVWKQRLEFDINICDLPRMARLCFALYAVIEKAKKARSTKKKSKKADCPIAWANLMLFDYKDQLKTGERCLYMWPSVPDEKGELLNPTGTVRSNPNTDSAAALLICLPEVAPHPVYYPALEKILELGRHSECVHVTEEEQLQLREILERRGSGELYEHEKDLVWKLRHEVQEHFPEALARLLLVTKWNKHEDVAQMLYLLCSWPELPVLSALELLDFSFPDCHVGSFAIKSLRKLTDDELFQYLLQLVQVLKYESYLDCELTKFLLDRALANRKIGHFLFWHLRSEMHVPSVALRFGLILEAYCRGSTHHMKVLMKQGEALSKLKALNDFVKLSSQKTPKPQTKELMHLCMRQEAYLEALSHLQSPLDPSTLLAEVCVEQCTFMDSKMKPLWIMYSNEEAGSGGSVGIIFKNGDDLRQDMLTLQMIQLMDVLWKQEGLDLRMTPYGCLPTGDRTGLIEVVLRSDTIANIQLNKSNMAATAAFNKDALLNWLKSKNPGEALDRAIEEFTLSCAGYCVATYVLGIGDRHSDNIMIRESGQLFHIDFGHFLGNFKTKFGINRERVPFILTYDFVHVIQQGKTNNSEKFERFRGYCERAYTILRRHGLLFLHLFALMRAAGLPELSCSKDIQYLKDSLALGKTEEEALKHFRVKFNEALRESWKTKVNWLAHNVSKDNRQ
PI3Kδ, sequence (P27986 whole entry partner): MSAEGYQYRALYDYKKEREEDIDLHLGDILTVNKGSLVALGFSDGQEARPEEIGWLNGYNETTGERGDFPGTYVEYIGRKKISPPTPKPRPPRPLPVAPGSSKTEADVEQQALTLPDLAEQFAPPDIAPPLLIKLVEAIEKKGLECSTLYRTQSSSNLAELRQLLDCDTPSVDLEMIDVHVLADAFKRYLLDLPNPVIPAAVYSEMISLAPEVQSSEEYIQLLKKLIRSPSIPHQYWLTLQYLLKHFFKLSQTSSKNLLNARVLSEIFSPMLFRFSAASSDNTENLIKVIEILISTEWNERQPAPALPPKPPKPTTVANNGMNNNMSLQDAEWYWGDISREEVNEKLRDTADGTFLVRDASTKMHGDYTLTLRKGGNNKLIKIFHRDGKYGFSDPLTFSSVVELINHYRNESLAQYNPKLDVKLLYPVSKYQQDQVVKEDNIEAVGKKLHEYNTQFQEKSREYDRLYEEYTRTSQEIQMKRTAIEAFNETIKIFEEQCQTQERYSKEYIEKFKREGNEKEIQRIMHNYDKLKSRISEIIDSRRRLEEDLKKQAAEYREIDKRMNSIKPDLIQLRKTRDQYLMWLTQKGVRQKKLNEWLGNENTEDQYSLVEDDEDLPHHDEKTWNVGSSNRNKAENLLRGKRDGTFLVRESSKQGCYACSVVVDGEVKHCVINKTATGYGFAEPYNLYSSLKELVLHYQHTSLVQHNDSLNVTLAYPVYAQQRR

Compared with `Cc1c(-c2ccccn2)nc2cccc(F)c2c1N1CC(C)(C)c2ccc(N3CCOCC3)cc21` [4-(3,3-dimethyl-6-(4-morpholinyl)-2,3-dihydro-1H-indol-1-yl)-5-fluoro-3-methyl-2-(2-pyridinyl)quinoline], `Cc1c(-c2ccccn2)nc2c(F)cccc2c1N1CC(C)(C)c2ccc(N3CCOCC3)cc21` [4-(3,3-dimethyl-6-(4-morpholinyl)-2,3-dihydro-1H-indol-1-yl)-8-fluoro-3-methyl-2-(2-pyridinyl)quinoline] is 1.7-fold lower in Ki: 156 nM for the first, 93.7 nM for the second.

Compared with `COc1cc(OC)c2nc(C)c(C)c(N3CC(C)(C)c4ccc(N5CCOCC5)cc43)c2c1` [4-(3,3-dimethyl-6-(4-morpholinyl)-2,3-dihydro-1H-indol-1-yl)-6,8-dimethoxy-2,3-dimethylquinoline], `COc1cc2nc(C)c(C)c(N3CC(C)(C)c4ccc(N5CCOCC5)cc43)c2cc1C` [4-(3,3-dimethyl-6-(4-morpholinyl)-2,3-dihydro-1H-indol-1-yl)-7-methoxy-2,3,6-trimethylquinoline] is 6.4-fold lower in Ki: 3970 nM for the first, 622 nM for the second.

First: Cc1c(-c2ccccc2F)nc2cc(F)ccc2c1N1CC(C)(C)c2ccc(N3CCOCC3)cc21 [4-(3,3-dimethyl-6-(4-morpholinyl)-2,3-dihydro-1H-indol-1-yl)-7-fluoro-2-(2-fluorophenyl)-3-methylquinoline]
Second: Cc1c(-c2ccccc2S(C)(=O)=O)nc2cc(F)ccc2c1N1CC(C)(C)c2ccc(N3CCOCC3)cc21 [4-(3,3-dimethyl-6-(4-morpholinyl)-2,3-dihydro-1H-indol-1-yl)-7-fluoro-3-methyl-2-(2-(methylsulfonyl)phenyl)quinoline]
The Ki of the first is 44-fold higher: 197 nM for the first, 4.43 nM for the second. The second binds more tightly here.

Compared with `Cc1cc(C)cc(-c2nc3cc(F)ccc3c(N3CC(C)(C)c4ncc(N5CCOCC5)cc43)c2C)c1` [4-(3,3-dimethyl-6-(4-morpholinyl)-2,3-dihydro-1H-pyrrolo[3,2-b]pyridin-1-yl)-2-(3,5-dimethylphenyl)-7-fluoro-3-methylquinoline], `Cc1c(-c2cncc(F)c2)nc2cnccc2c1N1CC(C)(C)c2ncc(N3CCOCC3)cc21` [4-(3,3-dimethyl-6-(4-morpholinyl)-2,3-dihydro-1H-pyrrolo[3,2-b]pyridin-1-yl)-2-(5-fluoro-3-pyridinyl)-3-methyl-1,7-naphthyridine] is 2-fold lower in Ki: 15.6 nM for the first, 7.75 nM for the second. The second binds more tightly here.

`Cc1c(-c2cccc(F)c2)nc2ncccc2c1N1CC(C)(C)c2ncc(N3CCOCC3)cc21` [4-(3,3-dimethyl-6-(4-morpholinyl)-2,3-dihydro-1H-pyrrolo[3,2-b]pyridin-1-yl)-2-(3-fluorophenyl)-3-methyl-1,8-naphthyridine] and `Cc1ccnc(-c2nc3cnccc3c(N3CC(C)(C)c4ncc(N5CCOCC5)cc43)c2C)c1` [4-(3,3-dimethyl-6-(4-morpholinyl)-2,3-dihydro-1H-pyrrolo[3,2-b]pyridin-1-yl)-3-methyl-2-(4-methyl-2-pyridinyl)-1,7-naphthyridine] are within 1.5-fold of each other in Ki: 5.38 nM for the first, 5.37 nM for the second.

`Cc1c(-c2cccc3[nH]ccc23)nc2cc(F)cc(F)c2c1N1CC(C)(C)c2ncc(N3CCOCC3)cc21` [4-(3,3-dimethyl-6-(4-morpholinyl)-2,3-dihydro-1H-pyrrolo[3,2-b]pyridin-1-yl)-5,7-difluoro-2-(1H-indol-4-yl)-3-methylquinoline] and `Cc1c(Cc2cccc(F)c2)nc2cc(F)cc(F)c2c1N1CC(C)(C)c2ncc(N3CCOCC3)cc21` [4-(3,3-dimethyl-6-(4-morpholinyl)-2,3-dihydro-1H-pyrrolo[3,2-b]pyridin-1-yl)-5,7-difluoro-2-(3-fluorobenzyl)-3-methylquinoline] are within 1.5-fold of each other in Ki: 2.77 nM for the first, 2.87 nM for the second.

`Cc1c(-c2cncc(F)c2)nc2cc(F)cc(F)c2c1N1CC(C)(C)c2ncc(N3CCOCC3)cc21` [4-(3,3-dimethyl-6-(4-morpholinyl)-2,3-dihydro-1H-pyrrolo[3,2-b]pyridin-1-yl)-5,7-difluoro-2-(5-fluoro-3-pyridinyl)-3-methylquinoline] was tested, and the Ki was 5.21 nM.
